According to PubChem BioAssay (NCI):
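Compound exposure: 48 hours, 5 concentrations, 96-well plates. Definition used: TGI = concentration required for complete inhibition of growth.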

Tests used:
Assay in all cases: NCI-60 cell line screen, 48 h
[1] = system: SN12C renal
[2] = system: OVCAR-4 ovarian
[3] = system: DMS 273 small cell lung
[4] = system: IGROV1 ovarian
[5] = system: HL-60(TB) leukemia
[6] = system: UO-31 renal
[7] = system: SW-620 colon
[8] = system: SF-295 CNS
[9] = system: UACC-257 melanoma
[10] = system: SK-MEL-5 melanoma
[11] = system: SK-MEL-2 melanoma
[12] = system: SK-MEL-28 melanoma
[13] = system: TK-10 renal
[14] = system: MALME-3M melanoma
[15] = system: SF-268 CNS
[16] = system: MOLT-4 leukemia
[17] = system: HOP-62 NSCLC
[18] = system: DMS 114 small cell lung
[19] = system: EKVX NSCLC
[20] = system: LOX IMVI melanoma
[21] = system: HCT-15 colon
[22] = system: COLO 205 colon
[23] = system: HCC-2998 colon
[24] = system: SR leukemia
[25] = system: RXF 393 renal
[26] = system: CAKI-1 renal
[27] = system: U251 CNS
[28] = system: KM12 colon
[29] = system: SNB-78 CNS
[30] = system: SK-OV-3 ovarian
[31] = system: HCT-116 colon
[32] = system: NCI-H460 lung
[33] = system: XF 498 CNS
[34] = system: NCI-H226 lung
[35] = system: DLD-1 colon
[36] = system: SF-539 CNS
[37] = system: KM20L2 colon
[38] = system: 786-0 renal
[39] = system: RPMI-8226 leukemia
[40] = system: OVCAR-8 ovarian
[41] = system: OVCAR-3 ovarian
[42] = system: M19-MEL melanoma
[43] = system: HT29 colon
[44] = system: OVCAR-5 ovarian
[45] = system: A549 NSCLC
[46] = system: A498 renal
[47] = system: ACHN renal
[48] = system: NCI-H23 lung
[49] = system: SNB-75 CNS
[50] = system: SNB-19 CNS
[51] = system: M14 melanoma
[52] = system: K-562 leukemia
[53] = system: NCI-H522 lung
[54] = system: HOP-18 NSCLC
[55] = system: CCRF-CEM leukemia
[56] = system: UACC-62 melanoma
[57] = system: LXFL 529 NSCLC
[58] = system: HOP-92 NSCLC

Measured: TGI

COC(=O)Cc1cc(=O)n2c3ccccc3n(C)c2c1C#N
> 100 µM: [1] | [2] | [3] | [4] | [5] | [6] | [7] | [8] | [9] | [10] | [11] | [12] | [13] | [14] | [15] | [16] | [17] | [18] | [19] | [20] | [21] | [22] | [23] | [24] | [25] | [26] | [27] | [28] | [29] | [30] | [31] | [32] | [33] | [34] | [35] | [36] | [37] | [38] | [39] | [40] | [41] | [42] | [43] | [44] | [45] | [46] | [47] | [48] | [49] | [50] | [51] | [52]

Nc1nc(Cl)c2ncn(CCCC(c3ccccc3)P(=O)(O)O)c2n1 (centres undefined)
> 100 µM: [1] | [3] | [4] | [5] | [6] | [7] | [8] | [53] | [9] | [10] | [11] | [12] | [13] | [54] | [14] | [15] | [17] | [18] | [20] | [55] | [21] | [22] | [23] | [24] | [26] | [27] | [56] | [28] | [29] | [30] | [31] | [32] | [35] | [57] | [36] | [37] | [38] | [39] | [58] | [40] | [41] | [42] | [43] | [44] | [45] | [46] | [47] | [48] | [49] | [50] | [51] | [52]
